Measured values: patent US8552220B2, “Therapeutic agent for Alzheimer's disease” (Tokyo Institute of Technology, priority 2008, dated 2013)

| SMILES | melting point [°C] |
| --- | --- |
| CCOC(=O)c1cn(-c2ccccc2/C=C/C(=O)CC(=O)/C=C/c2ccc(O)cc2)nn1 [CU625, (1E,6E)-1-[2-(4-ethoxycarbonyl-1H-1,2,3-triazol-1-yl)phenyl]-7-(4-hydroxyphenyl)hepta-1,6-diene-3,5-dione] | 231 to 237 |
| O=C(/C=C/c1ccc(O)cc1)CC(=O)/C=C/c1cc(OCc2ccccc2)ccc1-c1ccccc1 [CU527, (1E,6E)-1-(4-benzyloxybiphenyl-2-yl)-7-(4-hydroxyphenyl)hepta-1,6-diene-3,5-dione] | 172 to 178 |
| CN(C)c1ccc(/C=C/C(=O)CC(=O)CCc2ccc(O)cc2)c(C(F)(F)F)c1 [CU556, (E)-1-(4-dimethylamino-2-trifluoromethylphenyl)-7-(4-hydroxyphenyl)hept-1-ene-3,5-dione] | 110 to 114 |
| O=C(/C=C/c1cc(O)ccc1[N+](=O)[O-])CC(=O)/C=C/c1cc(O)ccc1[N+](=O)[O-] | 253 to 262 |
| O=C(/C=C/c1ccc(O)cc1)CC(=O)/C=C/c1cc(Br)ccc1F [CU466, (1E,6E)-1-(5-bromo-2-fluorophenyl)-7-(4-hydroxyphenyl)hepta-1,6-diene-3,5-dione] | 177 to 203 |
| CN(C)c1ccc(/C=C/C(=O)CC(=O)/C=C/c2ccc(N(C)C)cc2[N+](=O)[O-])c([N+](=O)[O-])c1 | 245 to 250 |
| CCN(CC)c1ccc(/C=C/C(=O)CC(=O)/C=C/c2ccc(N(CC)CC)cc2OC(=O)c2ccccc2)c(OC(=O)c2ccccc2)c1 [CU427, (1E,6E)-1,7-bis(2-benzoyloxy-4-diethylaminophenyl)hepta-1,6-diene-3,5-dione] | 192 to 196 |
| O=C(/C=C/c1ccc2cc[nH]c2c1)CC(=O)/C=C/c1ccc(O)cc1Cl [CU601, (1E,6E)-1-(2-chloro-4-hydroxyphenyl)-7-(1H-indol-6-yl)hepta-1,6-diene-3,5-dione] | 182 to 186 |
| CCOc1ccccc1-c1ccc(O)cc1/C=C/C(=O)CC(=O)/C=C/c1ccc(O)cc1 [CU643, (1E,6E)-1-(2′-ethoxy-4-hydroxybiphenyl-2-yl)-7-(4-hydroxyphenyl)hepta-1,6-diene-3,5-dione] | 111 to 115 |
| O=C(/C=C/c1ccc(O)cc1)CC(=O)/C=C/c1ccccc1-c1ccc2ccccc2c1 [CU529, (1E,6E)-1-(4-hydroxyphenyl)-7-[2-(naphthalen-2-yl)phenyl]hepta-1,6-diene-3,5-dione] | 105 to 114 |
| COc1ccc(/C=C/C(=O)CC(=O)/C=C/c2cc(O)ccc2[N+](=O)[O-])cc1O [CU133, (1E,6E)-1-(3-hydroxy-4-methoxyphenyl)-7-(5-hydroxy-2-nitrophenyl)hepta-1,6-diene-3,5-dione] | 107 to 111 |
| CCN(CC)c1ccc(/C=C/C(=O)CC(=O)/C=C/c2ccc(O)cc2)c(OC(=O)c2ccccc2)c1 [CU425, (1E,6E)-1-(2-benzoyloxy-4-diethylaminophenyl)-7-(4-hydroxyphenyl)hepta-1,6-diene-3,5-dione] | 212 to 215 |
| O=C(/C=C/c1ccc(O)cc1)CC(=O)/C=C/c1cc(F)ccc1-c1ccccc1 [CU640, (1E,6E)-1-(4-fluorobiphenyl-2-yl)-7-(4-hydroxyphenyl)hepta-1,6-diene-3,5-dione] | 187 to 191 |
| O=C(/C=C/c1ccc(O)cc1)CC(=O)/C=C/c1ccccc1-c1ccccc1 [CU472, (1E,6E)-1-(biphenyl-2-yl)-7-(4-hydroxyphenyl)hepta-1,6-diene-3,5-dione] | 180 to 188 |
| O=C(/C=C/c1ccc2cc[nH]c2c1)CC(=O)/C=C/c1cc(O)ccc1[N+](=O)[O-] [CU596, (1E,6E)-1-(5-hydroxy-2-nitrophenyl)-7-(1H-indol-6-yl)hepta-1,6-diene-3,5-dione] | 204 to 207 |
| O=C(/C=C/c1ccc(O)cc1)CC(=O)/C=C/c1ccccc1F [CU622, (1E,6E)-1-(2-fluorophenyl)-7-(4-hydroxyphenyl)hepta-1,6-diene-3,5-dione] | 146 to 150 |
| O=C(/C=C/c1cc(O)ccc1-c1cccc2ccccc12)CC(=O)CCc1ccc(O)cc1 [CU542, (E)-1-[5-hydroxy-2-(naphthalen-1-yl)phenyl]-7-(4-hydroxyphenyl)hept-1-ene-3,5-dione] | 138 to 142 |
| CN(C)S(=O)(=O)c1ccccc1/C=C/C(=O)CC(=O)/C=C/c1ccc(O)cc1 [CU480, (1E,6E)-1-[2-(dimethylaminosulfonyl)phenyl]-7-(4-hydroxyphenyl)hepta-1,6-diene-3,5-dione] | 86 to 90 |
| COc1ccc(/C=C/C(=O)CC(=O)/C=C/c2ccc(O)cc2Cl)cc1O [CU130, (1E,6E)-1-(2-chloro-4-hydroxyphenyl)-7-(3-hydroxy-4-methoxyphenyl)hepta-1,6-diene-3,5-dione] | 120 to 130 |
| COc1cc(/C=C/C(=O)CC(=O)/C=C/c2ccc(O)cc2)c(Br)cc1O [CU539, (1E,6E)-1-(2-bromo-4-hydroxy-5-methoxyphenyl)-7-(4-hydroxyphenyl)hepta-1,6-diene-3,5-dione] | 237 to 242 |

| SMILES | melting point [°C] |
| --- | --- |
| CN(C)c1ccc(/C=C/C(=O)CC(=O)/C=C/c2ccc(O)cc2)c(C(F)(F)F)c1 [CU555, (1E,6E)-1-(4-dimethylamino-2-trifluoromethylphenyl)-7-(4-hydroxyphenyl)hepta-1,6-diene-3,5-dione] | 195 to 199 |
| CCOC(=O)Cn1cc(-c2ccccc2/C=C/C(=O)CC(=O)/C=C/c2ccc(O)cc2)nn1 [CU646, (1E,6E)-1-[2-(1-ethoxycarbonylmethyl-1H-1,2,3-triazol-4-yl)phenyl]-7-(4-hydroxyphenyl)hepta-1,6-diene-3,5-dione] | 99 to 105 |
| COc1cc(O)ccc1/C=C/C(=O)CC(=O)/C=C/c1cc(O)ccc1Br [CU561, (1E,6E)-1-(2-bromo-5-hydroxyphenyl)-7-(4-hydroxy-2-methoxyphenyl)hepta-1,6-diene-3,5-dione] | 92 to 98 |
| CN(C)c1ccc(/C=C/C(=O)CC(=O)/C=C/c2ccc(N(C)C)cc2Cl)c(Cl)c1 [CU412, (1E,6E)-1,7-bis(2-chloro-4-dimethylaminophenyl)hepta-1,6-diene-3,5-dione] | 238 to 241 |
| CN(C)c1ccc(/C=C/C(=O)CC(=O)/C=C/c2ccc(O)cc2)c([N+](=O)[O-])c1 [CU194, (1E,6E)-1-(4-dimethylamino-2-nitrophenyl)-7-(4-hydroxyphenyl)hepta-1,6-diene-3,5-dione] | 217 to 222 |
| O=C(/C=C/c1ccc(O)cc1)CC(=O)/C=C/c1ccc(N2CCN(c3ccccc3)CC2)cc1Br [CU1095, (1E,6E)-1-[2-bromo-4-(4-phenylpiperazin-1-yl)phenyl]-7-(4-hydroxyphenyl)hepta-1,6-diene-3,5-dione] | 195 to 204 |
| O=C(/C=C/c1ccc2cc[nH]c2c1)CC(=O)/C=C/c1cc(O)ccc1-c1ccccc1 [CU604, (1E,6E)-1-(4-hydroxybiphenyl-2-yl)-7-(1H-indol-6-yl)hepta-1,6-diene-3,5-dione] | 185 to 191 |
| COc1cc(/C=C/C(=O)CC(=O)/C=C/c2ccc(O)cc2Cl)ccc1O [CU129, (1E,6E)-1-(2-chloro-4-hydroxyphenyl)-7-(4-hydroxy-3-methoxyphenyl)hepta-1,6-diene-3,5-dione] | 185 to 192 |
| CCOC(=O)Cn1nncc1-c1ccccc1/C=C/C(=O)CC(=O)/C=C/c1ccc(O)cc1 [CU647, (1E,6E)-1-[2-(1-ethoxycarbonylmethyl-1H-1,2,3-triazol-5-yl)phenyl]-7-(4-hydroxyphenyl)hepta-1,6-diene-3,5-dione] | 169 to 174 |
| Cc1ccccc1-c1ccc(O)cc1/C=C/C(=O)CC(=O)/C=C/c1ccc(O)cc1 [CU642, (1E,6E)-1-(4-hydroxy-2′-methylbiphenyl-2-yl)-7-(4-hydroxyphenyl)hepta-1,6-diene-3,5-dione] | 173 to 177 |
| CN(C)CCOc1ccc(/C=C/C(=O)CC(=O)/C=C/c2ccc(O)cc2)c(Cl)c1 [CU551, (1E,6E)-1-[2-chloro-4-(2-dimethylaminoethoxy)phenyl]-7-(4-hydroxyphenyl)hepta-1,6-diene-3,5-dione] | 170 to 173 |
| O=C(/C=C/c1ccc(O)cc1)CC(=O)/C=C/c1ccccc1-c1cn(Cc2ccccc2)nn1 [CU644, (1E,6E)-1-[2-(1-benzyl-1H-1,2,3-triazol-4-yl)phenyl]-7-(4-hydroxyphenyl)hepta-1,6-diene-3,5-dione] | 103 to 109 |
| O=C(/C=C/c1ccc2cc[nH]c2c1)CC(=O)/C=C/c1cc(OCc2ccccc2)ccc1[N+](=O)[O-] [CU588, (1E,6E)-1-(5-benzyloxy-2-nitrophenyl)-7-(1H-indol-6-yl)hepta-1,6-diene-3,5-dione] | 181 to 186 |
| O=C(/C=C/c1cc(O)ccc1[N+](=O)[O-])CC(=O)CCc1ccc(O)cc1 [CU530, (E)-1-(5-hydroxy-2-nitrophenyl)-7-(4-hydroxyphenyl)hept-1-ene-3,5-dione] | 62 to 70 |
| CN(C)c1ccc(/C=C/C(=O)CC(=O)/C=C/c2ccc3cc[nH]c3c2)c(Cl)c1 [CU584, (1E,6E)-1-(2-chloro-4-dimethylaminophenyl)-7-(1H-indol-6-yl)hepta-1,6-diene-3,5-dione] | 180 to 185 |
| O=C(/C=C/c1cc(O)ccc1Br)CC(=O)/C=C/c1cc(O)ccc1Br [CU614, (1E,6E)-1,7-bis(2-bromo-5-hydroxyphenyl)hepta-1,6-diene-3,5-dione] | 239 to 243 |
| COCOc1ccc([N+](=O)[O-])c(/C=C/C(=O)CC(=O)/C=C/c2ccc(O)cc2)c1 [CU649, (1E,6E)-1-(4-hydroxyphenyl)-7-[5-(methoxymethoxy)-2-nitrophenyl]hepta-1,6-diene-3,5-dione] | 175 to 180 |
| O=C(/C=C/c1ccc(O)cc1Cl)CC(=O)/C=C/c1cc(O)ccc1[N+](=O)[O-] [CU611, (1E,6E)-1-(2-chloro-4-hydroxyphenyl)-7-(5-hydroxy-2-nitrophenyl)hepta-1,6-diene-3,5-dione] | 132 to 136 |
| COc1cc(O)ccc1/C=C/C(=O)CC(=O)/C=C/c1ccc(O)cc1Cl [CU600, (1E,6E)-1-(2-chloro-4-hydroxyphenyl)-7-(4-hydroxy-2-methoxyphenyl)hepta-1,6-diene-3,5-dione] | 206 to 211 |
